# Reference: patent US9029399B2, “17α-hydroxylase/C17,20-lyase inhibitors” (Novartis AG, priority 2011, dated 2015)
# Molecular target: Human CYP17 enzyme (Cytochrome P450, 17-20 lyase) (Homo sapiens (Human), UniProt P05093)
# Assay: CYP17 lyase assay, recombinant human CYP17 enzyme, 17-α-hydroxy pregnenolone [21-3H] substrate
# Type: biochemical
# Conditions: recombinant human CYP17, first value of Human/Rat cell; read-out: Lyase IC 50 Human
# Text: 1) Cvtochrome P450, 17-20 Lyase (CYP17-Lyase) Assay Development Using Recombinant Human CYP17 Enzyme and 17-α-Hydroxy Pregnenolone [21-3H] as the Substrate
# Cytochrome P450, 17-α-Hydroxylase, 17-20 lyase (CYP17) is a multi functional enzyme that plays a key role in the biosynthesis of steroid hormones. […] In the hydroxylation reaction, it converts progesterone and pregnenolone to the corresponding hydroxylated products 17-α-hydroxy progesterone and 17-α-hydroxy pregnenolone. In the lyase reaction, it catalyzes the conversion of these hydroxylated substrates to Androstenedione and Dehydroepiandrosterone (DHEA) respectively. In the Cyp17 lyase assay described here, the conversion of 17-α-hydroxy pregnenolone to Dehydroepiandrosterone and acetic acid is being monitored.
# The conversion of 17-α-hydroxy pregnenolone to Dehydroepiandrosterone is accompanied by the release of acetic acid. In the Cyp17 lyase assay, 17-α-hydroxy pregnenolone labeled with tritium (3H) at position 21 is used as the substrate. Chloroform extraction removes the radioactive steroids and acetic acid is taken into aqueous layer. The tritiated acetic acid released in the assay thus extracted is quantified to determine the enzyme activity.
# Human Cyp 17 gene was cloned and expressed in Adenoviral expression system in A549 cell lines. The purified cell membrane preparations were used as the source for Human CYP17 enzyme. Total protein concentration: 8 mg/mL.
# For routine screening, the assay was set up with 16 μg of enzyme in 50 μL reaction volume. 17α-hydroxy pregnenolone [21-3H] was added to a final concentration of […] NADPH is used at a final concentration of 4.2 mM. Total reaction volume was made up to 50 μL with 50 mM Phosphate buffer pH 7.5. The reaction mixture was incubated at room temperature for 90 minutes with gentle shaking. The reaction was stopped by the addition of 100 μl, of buffer. 500 μl, of 5% freshly prepared activated charcoal was added to the solution and mixed well by vortexing. The samples were centrifuged at 17568×g for 5 minutes. (14000 rpm). The supernatant was carefully transferred to fresh tube and 1.3 mL of scintillation fluid was added, mixed by vortexing.
# The measurements were carried out in 2.0 mL Eppendorf™ tubes. Each tube was counted for 1 minute. The amount of tritiated acetic acid released is proportional to the lyase activity. Percent lyase activity in presence of inhibitor was calculated using the formula given below.
# [formula] Sample: Enzyme reaction in presence of inhibitor. Positive control: Enzyme reaction without inhibitor but containing DMSO at 1% final concentration. Blank—Contains all reagents except enzyme. % Inhibition=100%−% Lyase activity
# For IC50 determination, the % inhibition was plotted as a function of inhibitor concentration. The data was fitted to sigmoidal equation using Graphpad Prism® software IV to generate IC50 values.
# Chain of Human CYP17 enzyme (Cytochrome P450, 17-20 lyase) (P05093 whole entry): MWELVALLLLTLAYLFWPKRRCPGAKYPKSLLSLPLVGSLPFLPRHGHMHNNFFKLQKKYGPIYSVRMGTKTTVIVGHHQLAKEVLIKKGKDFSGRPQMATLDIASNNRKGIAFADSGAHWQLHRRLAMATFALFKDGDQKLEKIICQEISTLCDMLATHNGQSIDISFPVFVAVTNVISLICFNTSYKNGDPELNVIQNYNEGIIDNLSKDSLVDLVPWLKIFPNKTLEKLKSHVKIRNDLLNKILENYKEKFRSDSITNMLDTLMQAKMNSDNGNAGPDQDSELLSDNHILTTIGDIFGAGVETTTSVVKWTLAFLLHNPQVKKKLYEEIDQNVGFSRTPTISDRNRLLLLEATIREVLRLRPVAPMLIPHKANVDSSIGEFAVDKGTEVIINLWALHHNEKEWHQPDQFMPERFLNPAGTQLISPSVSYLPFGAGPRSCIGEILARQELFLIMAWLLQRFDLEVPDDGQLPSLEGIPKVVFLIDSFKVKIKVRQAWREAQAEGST
row,Compound,IC50 [nM]
1,"O=C1N(c2ccc3ccccc3c2)CCN1c1cnccc1C1CC1 [Example 3A, 1-(4-cyclopropylpyridin-3-yl)-3-(naphthalen-2-yl)imidazolidin-2-one]",26
2,"O=C1N(c2ccc3sccc3c2)CCN1c1cnccc1C1CC1 [Example 4A, 1-(benzo[b]thiophen-5-yl)-3-(4-cyclopropylpyridin-3-yl)imidazolidin-2-one]",13
3,"O=C1N(c2cccc(C(F)(F)F)c2)CCN1c1cnccc1C1CC1 [Example 5A, 1-(4-cyclopropylpyridin-3-yl)-3-(3-(trifluoromethyl)phenyl)imidazolidin-2-one]",6
4,"O=C1N(c2cc3ccccc3s2)CCN1c1cnccc1C1CC1 [Example 6A, 1-(benzo[b]thiophen-2-yl)-3-(4-cyclopropylpyridin-3-yl)imidazolidin-2-one]",13
5,"Cc1nc(Cl)cc(N2CCN(c3cnccc3C3CC3)C2=O)n1 [Example 7A, 1-(6-chloro-2-methylpyrimidin-4-yl)-3-(4-cyclopropylpyridin-3-yl)imidazolidin-2-one]",41
6,"O=C1N(c2cc(C(F)(F)F)ccn2)CCN1c1cnccc1C1CC1 [Example 8A, 1-(4-cyclopropylpyridin-3-yl)-3-(4-(trifluoromethyl)pyridin-2-yl)imidazolidin-2-one]",22
7,"O=C1N(c2cc(Cl)ncn2)CCN1c1cnccc1C1CC1 [Example 10A, 1-(6-chloropyrimidin-4-yl)-3-(4-cyclopropylpyridin-3-yl)imidazolidin-2-one]",121
8,"O=C1N(c2ccnc(C(F)(F)F)n2)CCN1c1cnccc1C1CC1 [Example 12A, 1-(4-cyclopropylpyridin-3-yl)-3-(2-(trifluoromethyl)pyrimidin-4-yl)imidazolidin-2-one]",99
9,"O=C1N(c2ccc3scc(C(F)(F)F)c3c2)CCN1c1cnccc1C1CC1 [Example 13A, 1-(4-cyclopropylpyridin-3-yl)-3-(3-(trifluoromethyl)benzo[b]thiophen-5-yl)imidazolidin-2-one]",11
10,"O=C1N(c2ccc3sc(F)cc3c2)CCN1c1cnccc1C1CC1 [Example 14A, 1-(4-cyclopropylpyridin-3-yl)-3-(2-fluorobenzo[b]thiophen-5-yl)imidazolidin-2-one]",26
11,"Cc1csc2ccc(N3CCN(c4cnccc4C4CC4)C3=O)cc12 [Example 15A, 1-(4-cyclopropylpyridin-3-yl)-3-(3-methylbenzo[b]thiophen-5-yl)imidazolidin-2-one]",6.7
12,"O=C1N(c2ccc3ccsc3c2)CCN1c1cnccc1C1CC1 [Example 16A, 1-(benzo[b]thiophen-6-yl)-3-(4-cyclopropylpyridin-3-yl)imidazolidin-2-one]",7
13,"O=C1N(c2ccc3c(c2)OC(F)(F)O3)CCN1c1cnccc1C1CC1 [Example 17A, 1-(4-cyclopropylpyridin-3-yl)-3-(2,2-difluorobenzo[d][1,3]dioxol-5-yl)imidazolidin-2-one]",58
14,"Cc1csc2cc(N3CCN(c4cnccc4C4CC4)C3=O)ccc12 [Example 18A, 1-(4-cyclopropylpyridin-3-yl)-3-(3-methylbenzo[b]thiophen-6-yl)imidazolidin-2-one]",76
15,"Cc1coc2ccc(N3CCN(c4cnccc4C4CC4)C3=O)cc12 [Example 19A, 1-(4-cyclopropylpyridin-3-yl)-3-(3-methylbenzofuran-5-yl)imidazolidin-2-one]",2.7
16,"O=C1N(c2ccc3sc(Cl)cc3c2)CCN1c1cnccc1C1CC1 [Example 20A, 1-(2-chlorobenzo[b]thiophen-5-yl)-3-(4-cyclopropylpyridin-3-yl)imidazolidin-2-one]",106
17,"O=C1N(c2ccc3c(c2)CCC3)CCN1c1cnccc1C1CC1 [Example 21A, 1-(4-cyclopropylpyridin-3-yl)-3-(2,3-dihydro-1H-inden-5-yl)imidazolidin-2-one]",17
18,"O=C1N(c2cc3cc(F)ccc3s2)CCN1c1cnccc1C1CC1 [Example 22A, 1-(4-cyclopropylpyridin-3-yl)-3-(5-fluorobenzo[b]thiophen-2-yl)imidazolidin-2-one]",7

row,Compound,IC50 [nM]
1,"O=C1N(c2ccc3c(C(F)(F)F)csc3c2)CCN1c1cnccc1C1CC1 [Example 23A, 1-(4-cyclopropylpyridin-3-yl)-3-(3-(trifluoromethyl)benzo[b]thiophen-6-yl)imidazolidin-2-one]",1210
2,"Cc1c(F)sc2ccc(N3CCN(c4cnccc4C4CC4)C3=O)cc12 [Example 24A, 1-(4-Cyclopropyl-pyridin-3-yl)-3-(2-fluoro-3-methylbenzo[b]thiophen-5-yl)-imidazolidin-2-one]",19
3,"O=C1N(c2ccc3cc(F)sc3c2)CCN1c1cnccc1C1CC1 [Example 25A, 1-(4-cyclopropyl-pyridin-3-yl)-3-(2-fluoro-benzo(b)thiophene-6-yl)imidazolidin-2-one]",30
4,"O=C1N(c2cc(F)c3ccsc3c2)CCN1c1cnccc1C1CC1 [Example 26A, 1-(4-cyclopropyl-pyridin-3-yl)-3-(4-fluoro-benzo[b]thiophen-6-yl)imidazolidin-2-one]",6
5,"O=C1N(c2cc3sccc3cc2F)CCN1c1cnccc1C1CC1 [Example 27A, 1-(4-cyclopropyl-pyridin-3-yl)-3-(5-fluoro-benzo[b]thiophen-6-yl)imidazolidin-2-one]",461
6,"O=C1N(c2cc3ccsc3cc2F)CCN1c1cnccc1C1CC1 [Example 28A, 1-(4-cyclopropylpyridin-3-yl)-3-(6-fluorobenzo[b]thiophen-5-yl)imidazolidin-2-one]",548
7,"O=C1N(c2ccnc(Cl)c2)[C@@H]2C[C@@H]2N1c1cnccc1C1CC1 [Example 30A-I, (1R,5S)-2-(2-chloropyridin-4-yl)-4-(4-cyclopropylpyridin-3-yl)-2,4-diazabicyclo[3.1.0]hexan-3-one]",161
8,"O=C1N(c2cnccc2C2CC2)[C@@H]2C[C@@H]2N1c1ccnc(Cl)c1 [Example 30A-II, (1S,5R)-2-(2-chloropyridin-4-yl)-4-(4-cyclopropylpyridin-3-yl)-2,4-diazabicyclo[3.1.0]hexan-3-one]",6
9,"COc1cc(N2C(=O)N(c3cnccc3C3CC3)[C@H]3C[C@H]32)ccn1 [Example 31A-1, (1S,5R)-2-(4-cyclopropylpyridin-3-yl)-4-(2-methoxypyridin-4-yl)-2,4-diazabicyclo[3.1.0]hexan-3-one]",169
10,"COc1cc(N2C(=O)N(c3cnccc3C3CC3)[C@@H]3C[C@@H]32)ccn1 [Example 31A-II, (1R,5S)-2-(4-cyclopropylpyridin-3-yl)-4-(2-methoxypyridin-4-yl)-2,4-diazabicyclo[3.1.0]hexan-3-one]",12
11,"O=C1N(c2ccnc(C(F)(F)F)c2)[C@@H]2C[C@@H]2N1c1cnccc1C1CC1 [Example 32A-I, (1S,5R)-2-(4-cyclopropylpyridin-3-yl)-4-(2-(trifluoromethyl)pyridin-4-yl)-2,4-diazabicyclo[3.1.0]hexan-3-one]",184
12,"O=C1N(c2ccnc(Cl)c2)CCN1c1cnccc1C1(O)CCC1 [Example 33A, 1-(2-chloro-pyridin-4-yl)-3-[4-(1-hydroxy-cyclobutyl)-pyridin-3-yl]imidazolidin-2-one]",45
13,"O=C1N(c2ccnc(Cl)c2)CCN1c1cnccc1C1CCCC1 [Example 34A, 1-(2-chloropyridin-4-yl)-3-(4-cyclopentyl-pyridin-3-yl)-imidazolidin-2-one]",13
14,"O=C1N(c2ccnc(Cl)c2)CCN1c1cnccc1C1(O)CCCC1 [Example 35A, 1-(2-chloropyridin-4-yl)-3-[4-(1-hydroxycyclopentyl)-pyridin-3-yl]-imidazolidin-2-one]",341
15,"O=C1N(c2cccc(C(F)(F)F)c2)CCN1c1cnccc1C1(O)CC1 [Example 36A, 1-[4-(1-hydroxy-cyclopropyl)-pyridin-3-yl]-3-(3-trifluoromethyl-phenyl)-imidazolidin-2-one]",27
16,"O=C1N(c2cc(Cl)nc(C(F)(F)F)c2)CCN1c1cnccc1C1CC1 [Example 37A, 1-(2-chloro-6-(trifluoromethyl)pyridin-4-yl)-3-(4-cyclopropylpyridin-3-yl)imidazolidin-2-one]",5
17,"O=C1N(c2cc(C3CC3)ncn2)CCN1c1cnccc1C1CC1 [Example 38A, 1-(4-cyclopropylpyridin-3-yl)-3-(6-cyclopropylpyrimidin-4-yl)imidazolidin-2-one]",48
